Assay results as given in patent publication US7928126B2, “Cyanopyridine derivative and use thereof as medicine” (Mitsubishi Tanabe Pharma Corporation, priority 2005, dated 2011).
Structures can show the parent of a compound that is named as a salt.

Tests used:
Type in all cases: biochemical
[1] = target: T1, aurora 2 kinase (Homo sapiens, UniProt O14965); test: Aurora 2 kinase assay (32P-ATP, peptide substrate LRRASLG); conditions: room temperature 60 min
T1 construct: The amplified gene encoding aurora 2 kinase was introduced into Escherichia coli expression vector pET32a; made in house; host or cells: Escherichia coli BL21R (Novagen), vector pET32a
T1 sequence (O14965 1-403): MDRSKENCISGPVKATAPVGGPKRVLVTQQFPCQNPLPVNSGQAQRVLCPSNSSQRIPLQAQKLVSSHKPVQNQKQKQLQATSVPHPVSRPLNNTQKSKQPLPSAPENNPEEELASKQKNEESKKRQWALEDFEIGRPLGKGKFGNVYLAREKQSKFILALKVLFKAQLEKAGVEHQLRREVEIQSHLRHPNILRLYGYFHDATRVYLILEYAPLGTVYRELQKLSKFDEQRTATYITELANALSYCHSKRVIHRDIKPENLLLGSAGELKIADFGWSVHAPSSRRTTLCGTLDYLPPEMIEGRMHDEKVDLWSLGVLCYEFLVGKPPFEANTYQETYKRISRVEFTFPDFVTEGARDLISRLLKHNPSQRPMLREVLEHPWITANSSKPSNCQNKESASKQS

[2] = target: T2, Porcine brain tubulin protein (Sus scrofa, UniProt P02550+P02554); test: Tubulin polymerization assay (turbidity at 405 nm); conditions: 10 μM compound, maximum polymerization rate, 37° C.; read-out: inhibitory rate (%)
T2 construct: 3.3 mg/ml Porcine brain tubulin protein: Cytoskeleton; purchased Cytoskeleton; host or cells: porcine brain (tissue-derived)
Description: A tubulin polymerization reaction mixture (50 μL) (80 mM Pipes pH=6.9, 0.5 mM MgCl2, 1 mM EGTA, 1 mM GTP, 3.3 mg/ml Porcine brain tubulin protein: Cytoskeleton, 10 μM compound) was prepared in a 96 well flat bottom plate under ice-cooling. This was placed in a plate reader (IWAKI microplate reader, EZS-ABS) controlled to a temperature of 37° C., whereby a temperature dependent tubulin polymerization reaction was initiated. Since the turbidity of the reaction mixture increases as the tubulin polymerization proceeds, the absorbance at 405 nm was measured every other minute for 30 min to monitor the polymerization reaction. Of the 30 min measures, the three largest differences per min of turbidity (generally those immediately after start of the reaction) were taken, and the average of the three values was calculated and taken as the maximum polymerization rate. Inhibitory percent (%)=(C−T)/C×100 wherein T is the maximum polymerization rate of the reaction mixture containing the compound, and C is the maximum polymerization rate of the reaction mixture without the compound.

[3] = target: T3, aurora 1 kinase (Homo sapiens, UniProt Q96GD4); test: Aurora 1 kinase assay (32P-ATP, peptide substrate LRRWSLG); conditions: room temperature 60 min
T3 construct: purchased UPSTATE
T3 sequence (Q96GD4 whole entry): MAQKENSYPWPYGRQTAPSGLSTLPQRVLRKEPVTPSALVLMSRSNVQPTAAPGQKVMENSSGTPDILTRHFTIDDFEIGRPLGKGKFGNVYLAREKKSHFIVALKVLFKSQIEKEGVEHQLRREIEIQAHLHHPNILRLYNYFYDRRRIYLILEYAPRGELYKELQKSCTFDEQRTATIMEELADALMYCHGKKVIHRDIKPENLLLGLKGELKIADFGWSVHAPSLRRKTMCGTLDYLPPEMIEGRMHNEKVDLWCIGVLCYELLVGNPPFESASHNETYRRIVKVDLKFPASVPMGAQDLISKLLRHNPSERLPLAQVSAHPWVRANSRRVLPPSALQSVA

T2 sequence (P02550 whole entry): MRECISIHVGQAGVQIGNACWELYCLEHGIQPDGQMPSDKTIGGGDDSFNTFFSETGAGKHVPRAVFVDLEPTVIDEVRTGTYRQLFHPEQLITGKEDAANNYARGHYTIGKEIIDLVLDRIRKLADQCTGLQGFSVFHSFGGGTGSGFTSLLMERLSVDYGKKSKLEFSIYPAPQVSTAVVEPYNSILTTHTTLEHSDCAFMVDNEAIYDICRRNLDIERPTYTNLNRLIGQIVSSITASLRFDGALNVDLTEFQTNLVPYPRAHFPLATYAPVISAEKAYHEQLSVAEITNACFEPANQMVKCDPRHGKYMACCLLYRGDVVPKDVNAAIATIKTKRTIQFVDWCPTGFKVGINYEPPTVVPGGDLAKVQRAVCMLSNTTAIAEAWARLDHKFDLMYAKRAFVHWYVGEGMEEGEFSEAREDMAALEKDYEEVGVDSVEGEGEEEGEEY
T2 sequence (P02554 whole entry): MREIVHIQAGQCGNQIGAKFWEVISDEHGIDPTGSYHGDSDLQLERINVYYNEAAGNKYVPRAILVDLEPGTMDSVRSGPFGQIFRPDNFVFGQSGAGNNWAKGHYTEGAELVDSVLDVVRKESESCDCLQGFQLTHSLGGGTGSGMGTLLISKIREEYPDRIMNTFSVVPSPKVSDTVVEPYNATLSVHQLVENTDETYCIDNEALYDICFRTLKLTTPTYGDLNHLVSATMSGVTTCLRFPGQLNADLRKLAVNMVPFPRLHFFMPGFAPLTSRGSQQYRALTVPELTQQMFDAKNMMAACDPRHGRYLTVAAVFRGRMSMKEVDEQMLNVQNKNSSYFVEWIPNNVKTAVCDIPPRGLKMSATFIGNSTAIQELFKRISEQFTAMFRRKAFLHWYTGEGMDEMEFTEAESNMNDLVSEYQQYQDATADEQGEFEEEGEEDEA

Structure (SMILES)	Ki [1] [nM]	inhibition at 10 µM [2] [%]	Ki [3] [nM]
Cc1cc(Nc2cc(-c3ccccc3)c(C#N)c(NCCOc3ccccc3)n2)n[nH]1 [Example 1, 2-(2-phenoxyethylamino)-6-(5-methyl-1H-pyrazol-3-ylamino)-4-phenylnicotinonitrile]	19	51	–
Cc1cc(Nc2cc(C(F)(F)F)c(C#N)c(NCCOc3ccccc3)n2)n[nH]1 [Example 3, 2-(2-phenoxyethylamino)-6-(5-methyl-1H-pyrazol-3-ylamino)-4-trifluoromethylnicotinonitrile]	15	36	–
COc1ccc(-c2cc(Nc3cc(C)[nH]n3)nc(NCCOc3ccccc3)c2C#N)cc1 [Example 4, 2-(2-phenoxyethylamino)-6-(5-methyl-1H-pyrazol-3-ylamino)-4-(4-methoxyphenyl)nicotinonitrile]	15	63	–
COc1ccc(OCCNc2nc(Nc3cc(C)[nH]n3)cc(C)c2C#N)cc1 [Example 5, 2-(2-(4-methoxyphenoxy)ethylamino)-6-(5-methyl-1H-pyrazol-3-ylamino)-4-methylnicotinonitrile hydrochloride]	26	51	–
Cc1cc(Nc2cc(C)c(C#N)c(NCCOc3ccccn3)n2)n[nH]1 [Example 7, 2-(2-(pyridin-2-yloxy)ethylamino)-6-(5-methyl-1H-pyrazol-3-ylamino)-4-methylnicotinonitrile dihydrochloride]	6	63	–
COc1ccccc1OCCNc1nc(Nc2cc(C)[nH]n2)cc(C)c1C#N [Example 8, 2-(2-(2-methoxyphenoxy)ethylamino)-6-(5-methyl-1H-pyrazol-3-ylamino)-4-methylnicotinonitrile]	6	42	–
Cc1cc(Nc2cc(C)c(C#N)c(NCCOc3ccc(F)cc3)n2)n[nH]1 [Example 10, 2-(2-(4-fluorophenoxy)ethylamino)-6-(5-methyl-1H-pyrazol-3-ylamino)-4-methylnicotinonitrile]	3	44	–
Cc1cc(Nc2cc(C)c(C#N)c(NCCOc3ccncc3)n2)n[nH]1 [Example 11, 2-(2-(pyridin-4-yloxy)ethylamino)-6-(5-methyl-1H-pyrazol-3-ylamino)-4-methylnicotinonitrile]	24	42	–
Cc1cc(Nc2ccc(C#N)c(NCCOc3ccccc3)n2)n[nH]1 [Example 14, 2-(2-phenoxyethylamino)-6-(5-methyl-1H-pyrazol-3-ylamino)nicotinonitrile]	3	55	–
Cc1cc(Nc2cc(C)c(C#N)c(NCCOc3ccc(F)c(Cl)c3)n2)n[nH]1 [Example 16, 2-(2-(3-chloro-4-fluorophenoxy)ethylamino)-6-(5-methyl-1H-pyrazol-3-ylamino)-4-methylnicotinonitrile]	3	65	–
COc1ccc(-c2cc(Nc3cc(C)[nH]n3)nc(NCCOc3ccccc3Cl)c2C#N)cc1 [Example 26, 2-(2-(2-chlorophenoxy)ethylamino)-6-(5-methyl-1H-pyrazol-3-ylamino)-4-(4-methoxyphenyl)nicotinonitrile hydrochloride]	13	48	–
Cc1ccc(OCCNc2nc(Nc3cc(C)[nH]n3)ccc2C#N)cn1 [Example 27, 2-(2-(6-methylpyridin-3-yloxy)ethylamino)-6-(5-methyl-1H-pyrazol-3-ylamino)nicotinonitrile dihydrochloride]	3	57	≤ 100
Cc1ccc(OCCNc2nc(Nc3cc(C)[nH]n3)ccc2C#N)c(C)n1 [Example 29, 2-(2-(2,6-dimethylpyridin-3-yloxy)ethylamino)-6-(5-methyl-1H-pyrazol-3-ylamino)nicotinonitrile dihydrochloride]	66	42	–
Cc1cc(Nc2ccc(C#N)c(NCCOc3ccc(OC(F)(F)F)cc3)n2)n[nH]1 [Example 30, 2-(2-(4-(trifluoromethoxy)phenoxy)ethylamino)-6-(5-methyl-1H-pyrazol-3-ylamino)nicotinonitrile]	80	34	–
Cc1cc(Nc2cc(C3CC3)n[nH]2)nc(NCCOc2cccnc2)c1C#N [Example 34, 6-(5-cyclopropyl-1H-pyrazol-3-ylamino)-4-methyl-2-(2-(pyridin-3-yloxy)ethylamino)nicotinonitrile]	–	–	≤ 100
Cc1cc(Nc2cc(C(C)C)n[nH]2)nc(NCCOc2cccnc2)c1C#N [Example 35, 6-(5-isopropyl-1H-pyrazol-3-ylamino)-4-methyl-2-(2-(pyridin-3-yloxy)ethylamino)nicotinonitrile]	–	–	≤ 100

Further lines, results first:

Ki [1] [nM]	inhibition at 10 µM [2] [%]	Ki [3] [nM]	Structure (SMILES)
3	< 0	–	Cc1cc(Nc2cc(-c3cccnc3)c(C#N)c(NCCOc3ccccc3)n2)n[nH]1 [Example 6, 2-(2-phenoxyethylamino)-6-(5-methyl-1H-pyrazol-3-ylamino)-4-(pyridin-3-yl)nicotinonitrile]
2	69	≤ 100	Cc1cc(Nc2cc(C)c(C#N)c(NCCOc3ccccc3F)n2)n[nH]1 [Example 13, 2-(2-(2-fluorophenoxy)ethylamino)-6-(5-methyl-1H-pyrazol-3-ylamino)-4-methylnicotinonitrile hydrochloride]
2	69	–	Cc1cc(Nc2ccc(C#N)c(NCCOc3cccc(F)c3)n2)n[nH]1 [Example 15, 2-(2-(3-fluorophenoxy)ethylamino)-6-(5-methyl-1H-pyrazol-3-ylamino)nicotinonitrile]
2	67	–	Cc1cc(Nc2ccc(C#N)c(NCCOc3cccnc3)n2)n[nH]1 [Example 17, 2-(2-(pyridin-3-yloxy)ethylamino)-6-(5-methyl-1H-pyrazol-3-ylamino)nicotinonitrile]
2	79	–	Cc1cc(Nc2cc(-c3cccnc3)c(C#N)c(NCCOc3cccc(F)c3)n2)n[nH]1 [Example 18, 2-(2-(3-fluorophenoxy)ethylamino)-6-(5-methyl-1H-pyrazol-3-ylamino)-4-(pyridin-3-yl)nicotinonitrile dihydrochloride]
1	59	–	Cc1cc(Nc2ccc(C#N)c(NCCOc3ccccc3F)n2)n[nH]1 [Example 19, 2-(2-(2-fluorophenoxy)ethylamino)-6-(5-methyl-1H-pyrazol-3-ylamino)nicotinonitrile hydrochloride]
2	75	–	Cc1cc(Nc2cc(C)c(C#N)c(NCCOc3cc(F)cc(F)c3)n2)n[nH]1 [Example 20, 2-(2-(3,5-difluorophenoxy)ethylamino)-6-(5-methyl-1H-pyrazol-3-ylamino)-4-methylnicotinonitrile hydrochloride]
1	73	–	Cc1cc(Nc2cc(C)c(C#N)c(NCCOc3ccccc3Cl)n2)n[nH]1 [Example 24, 2-(2-(2-chlorophenoxy)ethylamino)-6-(5-methyl-1H-pyrazol-3-ylamino)-4-methylnicotinonitrile hydrochloride]
2	51	≤ 100	Cc1cc(Nc2ccc(C#N)c(NCCOc3ccccc3Cl)n2)n[nH]1 [Example 25, 2-(2-(2-chlorophenoxy)ethylamino)-6-(5-methyl-1H-pyrazol-3-ylamino)nicotinonitrile hydrochloride]
